From patent publication US8394786B2, “Quinazoline derivatives” (Janssen Pharmaceutica N.V., priority 2003, dated 2013)

Tests used:
SKOV3 cells = assay: Serum starved proliferation assay on the ovarian carcinoma SKOV3 cells (C3); assay type: cell-based; conditions: EGF stimulated (100 ng/ml, 72 hours, serum free) or 72 hours with compounds, MTT cell viability assay; for IC50: Homo sapiens, SK-OV-3, 72 h, read-out: SKOV3 cell (C3): pIC50 (converted)
Experimental: The ovarian carcinoma cell line (SKOV3) was used in an epidermal growth factor stimulated cell proliferation assay, to assess the inhibitory effect of the compounds on EGF in whole cells.
In a first step the SKOV3 cells were incubated for 24 hours in the presence of 10% FCS serum. In the second step the cells were incubated with the compounds to be tested in a serum free condition (37° C. and 5% (v/v) CO2) and subsequently stimulated for 72 hours with EGF at a final concentration of 100 ng/ml. The effect of the compounds on the EGF stimulation was finally assessed in a standard MTT cell viability assay.
Alternatively, the SKOV3 cells were incubated for 24 hours in the presence of 10% FCS serum. In the second step the cells were incubated for 72 hours with the compounds to be tested and the effect of the compounds on cell proliferation was finally assessed in a standard MTT cell viability assay.

EGFR = EGFR (Homo sapiens, UniProt P00533); assay: In vitro inhibition of EGFR, Flash Plate or glass-fiber filter technology (C2); assay type: biochemical; design: 0.5 μg EGFR-kinase domain/well; conditions: EGFR-kinase domain, 5.0 μM unlabeled ATP, read-out: Kinase activity.(C2): pIC50 (converted)
EGFR, sequence (P00533 712-979 limits assumed): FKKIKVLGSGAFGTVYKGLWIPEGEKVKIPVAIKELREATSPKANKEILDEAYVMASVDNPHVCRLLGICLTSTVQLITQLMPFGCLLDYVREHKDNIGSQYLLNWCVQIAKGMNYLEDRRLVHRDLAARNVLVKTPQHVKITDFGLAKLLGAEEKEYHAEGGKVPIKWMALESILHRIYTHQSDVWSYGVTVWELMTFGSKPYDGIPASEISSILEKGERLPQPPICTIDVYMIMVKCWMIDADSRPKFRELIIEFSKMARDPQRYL
Experimental: The in vitro inhibition of EGFR was assessed using either the Flash Plate technology or the glass-fiber filter technology as described by Davies, S. P. et al., Biochem J. (2000), 351; p. 95-105. The Flash Plate technology is generally described by B. A. Brown et al. in High Throughput Screening (1997), p. 317-328. Editor(s): Devlin, John P. Publisher: Dekker, New York, N.Y.
In the Flash Plate EGFR kinase reaction assay, a kinase substrate consisting of biotinylated poly(L-glutamic acid-L-tyrosine) (poly(GT)biotin), is incubated with the aforementioned protein in the presence of (^33P) radiolabeled ATP. (^33P) phosphorylation of the substrate is subsequently measured as light energy emitted using a streptavidin-coated Flash Plate (PerkinElmer Life Sciences) by trapping and quantifying the binding of the biotin tagged and radiolabeled substrate.
The EGFR kinase reaction is performed at 30° C. for 60 minutes in a 96-well microtiter FlashPlate (PerkinElmer Life Sciences). For each of the tested compounds a full dose response 1·10^−6M to 1·10^−10M has been performed. IRESSA° and Tarceva™ (erlotinib) were used as reference compounds. The 100 μl reaction volume contains 54.5 mM TrisHCl pH 8.0, 10 mM MgCl2, 100 μM Na3VO4, 5.0 μM unlabeled ATP, 1 mM DTT, 0.009% BSA, 0.8 μCi AT^33P, 0.35 μg/well poly(GT)biotin and 0.5 μg EGFR-kinase domain/well.
The reaction is stopped by aspirating the reaction mixture and washing the plate 3× with 200 μl wash/stop buffer (PBS+100 mM EDTA). After the final wash step 200 μl of wash/stop buffer was added to each well and the amount of phosphorylated (^33P) Poly(GT)biotin determined by counting (30 sec/well) in a microtiterplate scintillation counter.
In the glass-fiber filter technology EGFR kinase reaction assay, a kinase substrate consisting of poly(L-glutamic acid-L-tyrosine) (poly(GT)), is incubated with the aforementioned protein in the presence of (^33P) radiolabeled ATP. (^33P) Phosporylation of the substrate is subsequently measured as radioactivity bound on a glassfiber-filter.
The EGFR kinase reaction is performed at 25° C. for 10 minutes in a 96-well microtiterplate. For each of the tested compounds a full dose response 1·10^−6M to 1·10^−10M has been performed. IRESSA° and Tarceva™ (erlotinib) were used as reference compounds. The 25 μl reaction volume contains 60 mM TrisHCl pH 7.5, 3 mM MgCl2, 3 mM Mn Cl2, 3 μM Na3VO4, 50 μg/ml PEG20000, 5.0 μM unlabeled ATP, 1 mM DTT, 0.1 μCi AT^33P, 62.5 ng/well poly(GT) and 0.5 μg EGFR-kinase domain/well.
The reaction is stopped by adding 5 μl of a 3% phosphoric acid solution. 10 μl of the reaction mixture is then spotted onto a Filtermat A filter (Wallac) and washed 3 times for 5 min. in 75 mM phosphoric acid and 1 time for 5 min. in methanol prior to drying and quantification on the Typhoon (Amersham) using a LE phosphorage storage screen.

| SMILES | IC50 (SKOV3 cells) [nM] | SKOV3 cell (C3): pIC50 (SKOV3 cells) | IC50 (EGFR) [nM] |
| --- | --- | --- | --- |
| COc1cc2ncnc3c2cc1OCCN(C(=O)CN1CCN(C)CC1)CC(=O)NCCCc1ccc(Cl)cc1N3 [Compound 51, 4,6-ethanediylidenepyrimido[4,5-b][6,1,9,12]benzoxatriazacycloheptadecin-12(13H)-one, 19-chloro-8,9,10,11,14,15,16,21-octahydro-22-methoxy-10-[(4-methyl-1-piperazinyl)acetyl]-] | 398 | – | – |
| COc1cc2ncnc3c2cc1OCCCC=CCCCC(=O)NCc1ccc(Cl)cc1N3 [Compound 106, 4,6-ethanediylidenepyrimido[4,5-b][6,1,16]benzoxadiazacyclononadecin-16(17H)-one, 21-chloro-8,9,10,13,14,15,18,23-octahydro-24-methoxy-] | – | 7.2 | 100 |
| COc1cc2ncnc3c2cc1OCCCC(=O)NC(CO)C(=O)NCc1ccc(Cl)cc1N3 (centres unmarked) [Compound 130, 4,6-ethanediylidenepyrimido[4,5-b][6,1,11,14]benzoxatriazacycloheptadecine-11,14(8H,15H)-dione, 19-chloro-9,10,12,13,16,21-hexahydro-13-(hydroxymethyl)-22-methoxy-] | 126 | – | 25.1 |
| COc1cc2ncnc3c2cc1OCCCC(=O)NCC(=O)NCc1ccc(Cl)cc1N3 [Compound 153, 4,6-ethenopyrimido[4,5-b][6,1,11,14]benzoxatriazacycloheptadecine-11,14(8H,15H)-dione, 19-chloro-9,10,12,13,16,21-hexahydro-22-methoxy-] | 794 | – | 15.8 |
| COc1cc2ncnc3c2cc1OCCCCCCOc1cc(NC(=O)c2ccc(F)cc2)ccc1N3 [Compound 64, benzamide, 4-fluoro-N-(8,9,10,11,12,13-hexahydro-20-methoxy-4,6-ethanediylidene-19H-pyrimido[4,5-b][6,13,1]benzodioxaazacyclopentadecin-16-yl)-] | 398 | – | 1000 |
| COc1cc2ncnc3c2cc1OCC(=O)NCCCC(=O)NCCc1ccc(Cl)cc1N3 [Compound 161, 4,6-ethanediylidene-8H-pyrimido[4,5-b][6,1,9,14]benzoxatriazacyclooctadecine-9,14-dione, 20-chloro-10,11,12,13,15,16,17,22-octahydro-23-methoxy-] | 1260 | – | 63.1 |
| COc1cc2ncnc3c2cc1OCCCCC(=O)NC(CC(C)C)C(=O)NCc1ccc(Cl)cc1N3 (centres unmarked) [Compound 136, 4,6-ethanediylidene-8H-pyrimido[4,5-b][6,1,12,15]benzoxatriazacyclooctadecine-12,15(16H)-dione, 20-chloro-9,10,11,13,14,17,22-heptahydro-23-methoxy-14-(2-methylpropyl)-] | 251 | – | 631 |
| COc1cc2ncnc3c2cc1OCCCCCNCCN(C)Cc1ccc(Cl)cc1N3 [Compound 117, 4,6-ethanediylidene-8H-pyrimido[4,5-b][6,1,12,15]benzoxatriazacyclooctadecine, 20-chloro-9,10,11,12,13,14,15,16,17,22-decahydro-23-methoxy-16-methyl-] | 3980 | – | 200 |
| COc1cc2ncnc3c2cc1OCC(=O)N1CCCC1C(=O)NCc1ccc(Cl)cc1N3 (centres unmarked) [Compound 126, 9,11-ethanediylidenepyrimido[4,5-b]pyrrolo[1,2-i][6,1,9,12]benzoxatriazacyclopentadecine-14,19(5H,13H)-dione, 3-chloro-16,17,18,18a,20,21-hexahydro-22-methoxy-] | 2510 | – | 2000 |
| COc1cc2ncnc3c2cc1OCCCC(=O)NC(C)C(=O)NCc1ccc(Cl)cc1N3 (centres unmarked) [Compound 131, 4,6-ethanediylidenepyrimido[4,5-b][6,1,11,14]benzoxatriazacycloheptadecine-11,14(8H,15H)-dione, 19-chloro-9,10,12,13,16,21-hexahydro-22-methoxy-13-methyl-] | 100 | – | 25.1 |
| COc1cc2ncnc3c2cc1OCC(=O)N(C)CC(=O)NCc1ccc(Cl)cc1N3 [Compound 159, 4,6-ethanediylidenepyrimido[4,5-b][6,1,9,12]benzoxatriazacyclopentadecine-9,12(8H,13H)-dione, 17-chloro-10,11,14,19-tetrahydro-20-methoxy-10-methyl-] | 2000 | – | 316 |
| COc1cc2ncnc3c2cc1OCC1CCN(CC1)CC(=O)NCCCc1ccc(Cl)cc1N3 [Compound 57, 13H-4,6-ethanediylidene-9,12-ethanopyrimido[4,5-b][6,1,11,14]benzoxatriazacyclononadecin-14(15H)-one, 21-chloro-8,9,10,11,16,17,18,23-octahydro-26-methoxy-] | 398 | – | 6310 |
| COc1cc2ncnc3c2cc1OCC(=O)N1CC(O)CC1C(=O)NCCc1ccc(Cl)cc1N3 (centres unmarked) [Compound 149, 1,21-ethanediylidene-5H-pyrimido[4,5-b]pyrrolo[1,2-i][6,1,9,12]benzoxatriazacyclohexadecine-13,18(19H)-dione, 7-chloro-10,11,12,13a,14,15,16-heptahydro-15-hydroxy-23-methoxy-] | 1580 | – | 126 |
| COc1cc2ncnc3c2cc1OCCCCC(=O)N1CCCC1C(=O)NCc1ccc(Cl)cc1N3 (centres unmarked) [Compound 134, 4,6-ethanediylidene-8H-pyrimido[4,5-b]pyrrolo[1,2-l][6,1,12,15]benzoxatriazacyclooctadecine-12,17(18H)-dione, 22-chloro-9,10,11,14,15,16,16a,19,24-nonahydro-25-methoxy-] | 794 | – | 398 |
| COc1cc2ncnc3c2cc1OCC(=O)NCC(=O)NCc1ccccc1N3 [Compound 156, 4,6-ethanediylidenepyrimido[4,5-b][6,1,9,12]benzoxatriazacyclopentadecine-9,12(8H,13H)-dione, 10,11,14,19-tetrahydro-20-methoxy-] | 10000 | – | – |
| CCC(C)C1NC(=O)COc2cc3c(ncnc3cc2OC)Nc2ccccc2CNC1=O (centres unmarked) [Compound 124, 4,6-ethanediylidenepyrimido[4,5-b][6,1,9,12]benzoxatriazacyclopentadecine-9,12(8H,13H)-dione, 10,11,14,19-tetrahydro-20-methoxy-11-(1-methylpropyl)-] | 10000 | – | – |
| COc1cc2ncnc3c2cc1OCC(=O)NC(C)(C)C(=O)NCc1ccc(Cl)cc1N3 [Compound 132, 4,6-ethanediylidenepyrimido[4,5-b][6,1,9,12]benzoxatriazacyclopentadecine-9,12(8H,13H)-dione, 17-chloro-10,11,14,19-tetrahydro-20-methoxy-11,11-dimethyl-] | 10000 | – | – |
| COc1cc2ncnc3c2cc1OCC(=O)NCCC(=O)NCc1ccccc1N3 [Compound 157, 4,6-ethanediylidene-8H-pyrimido[4,5-b][6,1,9,13]benzoxatriazacyclohexadecine-9,13(10H,14H)-dione, 11,12,15,20-tetrahydro-21-methoxy-] | 10000 | – | – |
| COc1cc2ncnc3c2cc1OCCCC=CCC(NC(=O)OC(C)(C)C)C(=O)NCc1ccc(Cl)cc1N3 (centres unmarked) [Compound 110, carbamic acid, (20-chloro-9,10,13,14,15,16,17,22-octahydro-23-methoxy-15-oxo-4,6-ethanediylidene-8H-pyrimido[4,5-b][6,1,15]benzoxadiazacyclooctadecin-14-yl)-, 1,1-dimethylethyl ester] | – | – | 3980 |
